According to paper PMC8333425, “Discovery of a dual Ras and ARF6 inhibitor from a GPCR endocytosis screen” (Nature Communications, 2021):
“And” between values parts separate entries of the source, which are not always exact repeats. Equal values may be shown once.

Experiments:
ERK1/2 activation by B2R = test: Western blot of B2R-mediated ERK1/2 phosphorylation; type: cell-based, human; details: for p-ERK1/2 over ERK1/2, normalized to basal (0 min), B2R: Comp 21 50 μM, individual experiments
Description: HEK293SL cells (10^5 cells per well) were seeded in a poly-L-lysine-coated six-well plate and transiently transfected with 3 μg Flag-AT1R, HA-B2R or HA-β2AR and/or 500 ng Flag-MEK1-WT, Flag-MEK1-DD, Flag-BRAF-WT, Flag-BRAF-V600E, Flag-K-Ras-WT, Flag-K-Ras-G12V, HA-ARF6-WT, or HA-ARF6-T27N. Gαq/11 KO and βarr1/2 KO cells were seeded onto 100 mm dishes at a density of 10^6 cells per dish. Next day, cells were transfected with 3 μg AT1R alone or along with 500 ng of β-arrestin2 using PEI. After 18 h of transfection, cells were detached and re-seeded onto poly-L-lysine coated 12-well plates (~1.5–2 × 10^5cells/well) for subsequent experiments. Forty-eight hours post transfection, in a 37 °C water bath, cells were serum-starved for 30 min, pretreated with DMSO (0.1%) or compound 21/Rasarfin (50 µM or at indicated concentrations) for 30 min, then stimulated or not with the indicated ligand [AngII (1 µM), BK (1 µM), Iso (10 µM) or EGF (100 ng/ml)] at indicated times. Cells were put on ice, washed with PBS and solubilized in 2x laemmli buffer (250 mM Tris–HCl pH 6.8, 2% SDS (w/v), 10% glycerol (v/v), 0.01% bromophenol blue (w/v) and 5% β-mercaptoethanol (v/v)) by heating at 65 °C for 15 min. Lysates were resolved on 10 or 14% SDS-PAGE, transferred to nitrocellulose membranes and immunoblotted for p-ERK1/2, ERK1/2, p-Akt, Akt, HA, Myc, β-actin or FLAG. ImageLab 5.2 software was used to quantify the digital blots as fold of the phosphorylated protein over total protein, which were then normalized as indicated in the figure legends. Uncropped immunoblots are provided in the Source Data file.

Rac/Cdc42 = Rac/Cdc42 BRET sensor (PAK-CRIB-RlucII / rGFP-CAAX), AT1R-mediated; type: cell-based, human
Text: Since 21 inhibited both ERK1/2 and Akt activation by GPCRs and EGFR, we looked at a common target involved in both pathways. The small G protein Ras is an upstream regulator of both Ras-RAF-MEK-ERK and PI3K/Akt signaling pathways[35],[36]. Therefore, we explored 21’s ability to inhibit Ras activity using GST-Raf1-Ras-binding domain (RBD) in a pull-down assay. A reduction of 60% in GTP-bound Ras was noticed in pulled-down from cells treated with 21 and stimulated with either AT1R or EGFR, as compared to vehicle-treated cells (Fig. 4a, b). Complementary to this in vitro assay, we generated a Ras BRET assay, using the Raf-Ras binding domain tagged with RlucII (Raf1-RBD-RlucII) and the rGFP at the PM (rGFP-CAAX) (Supplementary Fig. 3c), to assess 21’s effects on Ras activation kinetics. […] Overexpression of either the active form of Ras (G12V) or SOS1 anchored at the PM (SOS-CAAX) produced a robust basal BRET signal that was no longer modulated by receptor activation (Supplementary Fig. 3d). […] 21’s potency to inhibit ARF6 and Ras is also consistent with its relative efficacy for inhibiting AT1R internalization and MAPK, respectively, when used at 50 μM (e.g., around 7 and 70 times the respective IC50s) (Figs. 2e and 3a). We also assessed if 21 was acting as a pan small G protein inhibitor by testing its effect on Rho and Rac/Cdc42. […] To assess Rac/Cdc42 activity, we generated a Rac/Cdc42 BRET sensor that consisted of the PAK-CRIB domain fused to RlucII (PAK-CRIB-RlucII) and the rGFP-CAAX (Supplementary Fig. 3e). PAK-CRIB, which binds to active Rac/Cdc42, was recruited to the PM upon AngII stimulation of cells and generated a robust BRET signal, which was blocked by the overexpression of the DN Rac1-T17N. Overexpression of the constitutively active Rac1-Q61L increased the basal BRET, which was no longer modulated by AT1R stimulation (Supplementary Fig. 3f).
HEK293SL cells were seeded at a density of 7.5 × 10^5 cells per 100-mm dish and 24 h later, transiently transfected as such. For receptor internalization experiments, cells were transfected with 0.12 μg AT1R-RlucII, B2R-RlucII, or β2AR-RlucII and 0.48 μg of either rGFP-CAAX (to assess removal from the PM) or rGFP-FYVE (to assess accumulation in the endosomes). For β-arrestin recruitment assays, cells were transfected with 0.48 μg of receptor-YFP along with 0.12 μg of β-arrestin-RlucII. For β-arrestin/AP-2 binding experiments, cells were transfected with 1 μg Flag-AT1R, 1 μg β2-Adaptin-YFP, and 0.12 μg β-arrestin2-RlucII. For G protein activation, cells were transfected with 3 μg of sp-Flag-AT1R along with either 4.5 μg of the Gαq-polycistronic BRET sensor or 0.24 μg of the Gαi3-RlucII and 0.6 μg of GFP10-Gγ2 and Gβ1 sensors or 0.12 μg PKN-RBD-RlucII and 0.48 μg of rGFP-CAAX. For PKC activation, cells were transfected with 3 μg of sp-Flag-AT1R and 0.18 μg of the PKC sensor. For GTPase activation experiments, cells were transfected with 1 μg Flag-AT1R, 0.48 μg of rGFP-CAAX, and either 0.12 μg of GGA3-PBD-RlucII, PAK-CRIB-RlucII or Raf-RBD-RlucII. For biosensor validation experiments, cells were additionally transfected with 500 ng Flag-K-Ras-WT, Flag-K-Ras-G12V, Flag-K-Ras-SOS-CAAX, HA-ARF6-WT, HA-ARF6-T27N, Myc-Rac1-WT, Myc-Rac1-Q61L or Myc-Rac1-T17N. For PI3K/Akt activation experiments, cells were transfected with 0.48 μg of rGFP-CAAX and 0.12 μg of Akt (PH)-RlucII. After 18 h of transfection, the media was replaced and cells were divided for subsequent experiments. Cells were detached and seeded onto poly-L-ornithine-coated 96-well flat white bottom plates (BrandTech Scientific) at a density of 2.5 × 10^4 cells per well in media. The next day, cells were washed once with Tyrode’s buffer (140 mM NaCl, 2.7 mM KCl, 1 mM CaCl2, 12 mM NaHCO3, 5.6 mM D-glucose, 0.5 mM MgCl2, 0.37 mM NaH2PO4, 25 mM HEPES, pH 7.4) and left in Tyrode’s buffer. […]

**Q.** What does the source list for `CC(C)C(=O)N1CCN(c2ccc(NC(=O)c3cc4ccccc4o3)cc2Cl)CC1` [Compound 21]?
**A.** MAPK response promoted by B2R (ERK1/2 activation by B2R; 50 μM): blocked MAPK responses; p-ERK1/2 over ERK1/2, normalized to basal (0 min), B2R (ERK1/2 activation by B2R; time 0 min): 1 (3×) and 1.039; p-ERK1/2 over ERK1/2, normalized to basal (0 min), B2R (ERK1/2 activation by B2R; time 2 min): 1.954 and 3.081 and 1.486 and 1.1152; p-ERK1/2 over ERK1/2, normalized to basal (0 min), B2R (ERK1/2 activation by B2R; time 5 min): 0.9797 and 0.9619 and 1.157 and 1.051; Rac/Cdc42 activation mediated by AT1R (BRET sensor) (Rac/Cdc42): failed to inhibit Rac/Cdc42 activation; Rac MEAN (Fig.4d) (Rac/Cdc42; Log [Comp 21] (M) -4): 98.9456; Rac MEAN (Fig.4d) (Rac/Cdc42; Log [Comp21] (M) -4.3): 92.4505; Rac MEAN (Fig.4d) (Rac/Cdc42; Log [Comp21] (M) -5): 96.5837; Rac MEAN (Fig.4d) (Rac/Cdc42; Log [Comp21] (M) -5.3): 100.464; Rac MEAN (Fig.4d) (Rac/Cdc42; Log [Comp 21] (M) -6): 102.348; Rac MEAN (Fig.4d) (Rac/Cdc42; Log [Comp21] (M) -6.3): 96.0354; Rac MEAN (Fig.4d) (Rac/Cdc42; Log [Comp 21] (M) -7): 96.1409
